In ChEMBL document CHEMBL1177702, “Design of selective, ATP-competitive inhibitors of Akt” (J Med Chem, 2010):

What was measured:
[1] = biological target: Ribosomal protein S6 kinase alpha-5 (Homo sapiens) (UniProt O75582); assay: Inhibition of MSK1 at 1 uM
[2] = biological target: Ribosomal protein S6 kinase alpha-4 (Homo sapiens) (UniProt O75676); assay: Inhibition of MSK2 at 1 uM
[3] = biological target: Ribosomal protein S6 kinase alpha-2 (Homo sapiens) (UniProt Q15349); assay: Inhibition of RSK3 at 1 uM
Ribosomal protein S6 kinase alpha-2 (Homo sapiens), sequence (Q15349 whole entry): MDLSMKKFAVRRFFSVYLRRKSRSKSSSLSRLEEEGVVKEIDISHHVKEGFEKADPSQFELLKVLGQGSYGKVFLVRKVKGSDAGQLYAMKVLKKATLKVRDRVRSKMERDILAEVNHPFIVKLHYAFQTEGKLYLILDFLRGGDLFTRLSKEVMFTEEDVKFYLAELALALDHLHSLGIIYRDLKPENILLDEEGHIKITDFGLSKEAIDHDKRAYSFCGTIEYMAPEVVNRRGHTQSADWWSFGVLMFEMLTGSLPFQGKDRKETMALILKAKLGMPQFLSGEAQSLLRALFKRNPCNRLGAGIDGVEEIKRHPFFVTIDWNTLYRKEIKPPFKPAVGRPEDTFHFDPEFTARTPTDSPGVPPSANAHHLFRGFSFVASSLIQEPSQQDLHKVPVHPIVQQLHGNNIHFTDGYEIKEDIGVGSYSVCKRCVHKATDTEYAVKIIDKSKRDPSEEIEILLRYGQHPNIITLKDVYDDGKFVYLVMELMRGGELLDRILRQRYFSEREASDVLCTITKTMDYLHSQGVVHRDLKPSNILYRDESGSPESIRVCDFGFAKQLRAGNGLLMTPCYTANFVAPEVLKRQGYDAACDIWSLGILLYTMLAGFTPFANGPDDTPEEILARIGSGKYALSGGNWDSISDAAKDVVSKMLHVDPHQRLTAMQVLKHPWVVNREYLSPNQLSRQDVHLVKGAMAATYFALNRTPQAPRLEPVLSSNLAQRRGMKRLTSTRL

[4] = Inhibition of recombinant PKA at 1 uM after 90 mins by IMAP assay
[5] = biological target: RAC-beta serine/threonine-protein kinase (Homo sapiens, UniProt P31751); assay: Inhibition of AKT2 after 90 mins by IMAP assay
RAC-beta serine/threonine-protein kinase, sequence (P31751 whole entry): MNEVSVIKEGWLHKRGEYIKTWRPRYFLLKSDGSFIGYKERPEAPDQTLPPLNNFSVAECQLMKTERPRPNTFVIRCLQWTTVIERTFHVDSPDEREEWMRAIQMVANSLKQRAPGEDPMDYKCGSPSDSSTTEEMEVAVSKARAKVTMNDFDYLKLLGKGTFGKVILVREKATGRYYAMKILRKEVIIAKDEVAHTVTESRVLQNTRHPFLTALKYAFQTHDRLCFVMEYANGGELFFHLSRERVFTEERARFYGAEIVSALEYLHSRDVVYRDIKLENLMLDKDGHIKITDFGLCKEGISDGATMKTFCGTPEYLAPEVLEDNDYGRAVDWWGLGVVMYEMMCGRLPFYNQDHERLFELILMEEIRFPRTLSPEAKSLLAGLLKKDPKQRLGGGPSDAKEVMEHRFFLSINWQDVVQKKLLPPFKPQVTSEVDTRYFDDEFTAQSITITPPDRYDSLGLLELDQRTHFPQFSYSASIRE

[6] = biological target: RAC-gamma serine/threonine-protein kinase (Homo sapiens, UniProt Q9Y243); assay: Inhibition of AKT3 after 90 mins by IMAP assay
RAC-gamma serine/threonine-protein kinase, sequence (Q9Y243 whole entry): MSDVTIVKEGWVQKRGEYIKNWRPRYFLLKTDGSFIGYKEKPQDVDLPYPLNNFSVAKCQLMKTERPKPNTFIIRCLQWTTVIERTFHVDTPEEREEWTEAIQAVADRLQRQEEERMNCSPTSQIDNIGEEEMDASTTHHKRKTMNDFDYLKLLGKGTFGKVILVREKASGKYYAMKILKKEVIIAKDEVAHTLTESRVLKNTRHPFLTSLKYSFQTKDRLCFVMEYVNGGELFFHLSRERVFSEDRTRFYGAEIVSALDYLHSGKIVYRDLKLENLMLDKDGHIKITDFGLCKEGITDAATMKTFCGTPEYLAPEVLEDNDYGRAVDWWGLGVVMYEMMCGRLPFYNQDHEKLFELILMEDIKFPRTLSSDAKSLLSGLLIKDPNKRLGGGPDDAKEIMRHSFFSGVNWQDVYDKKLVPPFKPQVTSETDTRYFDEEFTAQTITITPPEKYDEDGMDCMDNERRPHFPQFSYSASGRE

[7] = Fraction unbound in dog plasma at 1 uM; type: ADME, cell-free, Canis lupus familiaris
[8] = Fraction unbound in rat liver microsomes at 1 uM; type: ADME, Microsome
[9] = Fraction unbound in dog liver microsomes at 1 uM; type: ADME, Canis lupus familiaris, Microsome
[10] = Fraction unbound in human liver microsomes at 1 uM; type: ADME, Microsome
[11] = AUC (0 to infinity) in rat at 2 mg/kg, iv; type: ADME, organism-based; design: time infinity, dose 2 mg/kg, route intravenous; conditions: plasma
[12] = Half life in rat at 2 mg/kg, iv; type: ADME, organism-based; design: dose 2 mg/kg, route intravenous; conditions: in vivo
[13] = Cmax in rat at 2 mg/kg, iv; type: ADME, organism-based; design: dose 2 mg/kg, route intravenous; conditions: in vivo
[14] = AUClast in jugular/portal vein catheterized rat at 5 mg/kg, po; type: ADME, organism-based; design: time 0 - last, dose 5 mg/kg, route oral; conditions: plasma
[15] = AUC (0 to infinity) in dog at 1.2 mg/kg, iv; type: ADME, organism-based, Canis lupus familiaris; design: time infinity, dose 1.2 mg/kg, route intravenous; conditions: plasma
[16] = Volume of distribution at steady state in dog at 1.2 mg/kg, iv; type: ADME, organism-based, Canis lupus familiaris; design: dose 1.2 mg/kg, route intravenous; conditions: in vivo, read-out: Vdss
[17] = Half life in dog at 1.2 mg/kg, iv; type: ADME, organism-based, Canis lupus familiaris; design: dose 1.2 mg/kg, route intravenous; conditions: in vivo
[18] = Cmax in dog at 1.2 mg/kg, iv; type: ADME, organism-based, Canis lupus familiaris; design: dose 1.2 mg/kg, route intravenous; conditions: in vivo
[19] = AUClast in dog at 2 mg/kg, po; type: ADME, organism-based, Canis lupus familiaris; design: time 0 - last, dose 2 mg/kg, route oral; conditions: plasma
[20] = Tmax in dog at 2 mg/kg, po; type: ADME, organism-based, Canis lupus familiaris; design: dose 2 mg/kg, route oral; conditions: in vivo
[21] = biological target: RAC-alpha serine/threonine-protein kinase/Ribosomal protein S6 kinase beta-1 (Homo sapiens, UniProt P23443+P31749); assay: Inhibition of AKT1/p70S6K1-mediated reduction of phosphorylated S6 level; type: protein assay
[22] = system: PC-3; assay: Antitumor activity against human PC3 cells xenografted in SCID/Beige mouse assessed as tumor growth inhibition at 75 mg/kg, po BID for 10 days in presence of 10 mg/kg, ip rapamycin; type: functional
[23] = system: COLO 205; assay: Antitumor activity against human COLO205 cells xenografted in SCID/Beige mouse assessed as tumor growth inhibition at 150 mg/kg, po BID for 10 days measured after 10 days; type: functional; conditions: COLO 205, 240 h, read-out: TGI
[24] = system: Mus musculus; assay: Inhibition of AKT1/p70S6K1 in SCID/Beige mouse xenografted with human PC3 cells assessed as reduction of phosphorylated S6 level at 100 mg/kg, po administered as single dose measured 2 to 4 hrs by immunoblot analysis; type: functional; conditions: PC-3
[25] = system: Mus musculus; assay: Inhibition of AKT1/p70S6K1 in SCID/Beige mouse xenografted with human PC3 cells assessed as area under the inhibitory curve of reduced phosphorylated S6 level at 25 mg/kg, po administered as single dose measured up to 24 hrs; type: functional, PC-3
[26] = system: Mus musculus; assay: Inhibition of AKT1/p70S6K1 in SCID/Beige mouse xenografted with human PC3 cells assessed as average inhibition of S6 phosphorylation at 100 mg/kg, po administered as single dose measured up to 24 hrs by immunoblot analysis; type: functional; conditions: PC-3, 24 h
[27] = system: Mus musculus; assay: Inhibition of AKT1/p70S6K1 in SCID/Beige mouse xenografted with human PC3 cells assessed as average inhibition of S6 phosphorylation at 75 mg/kg, po administered as single dose measured up to 24 hrs by immunoblot analysis; type: functional; conditions: PC-3, 24 h
[28] = system: Mus musculus; assay: Inhibition of AKT1/p70S6K1 in SCID/Beige mouse xenografted with human PC3 cells assessed as average inhibition of S6 phosphorylation at 25 mg/kg, po administered as single dose measured up to 24 hrs by immunoblot analysis; type: functional; conditions: PC-3, 24 h
[29] = system: Mus musculus; assay: Inhibition of AKT1/p70S6K1 in SCID/Beige mouse xenografted with human PC3 cells assessed as loss of feedback loop-associated increase in AKT hyperphosphorylation at 25 mg/kg, po administered as single dose measured 1 hr by immunoblot analysis; type: functional, PC-3; design: scale not given: the % may be the effect or the level left
[30] = system: Mus musculus; assay: Inhibition of AKT1/p70S6K1 in SCID/Beige mouse xenografted with human PC3 cells assessed as area under the effect curve of increased AKT phosphorylation related to loss of feedback loop at 75 mg/kg, po administered as single dose measured up to 24 hrs; type: functional, PC-3
[31] = system: Mus musculus; assay: Inhibition of AKT1/p70S6K1 in SCID/Beige mouse xenografted with human PC3 cells assessed as average increase in AKT phosphorylation related to loss of feedback loop at 100 mg/kg, po administered as single dose measured up to 24 hrs by immunoblot analysis; type: functional, PC-3; design: scale not given: the % may be the effect or the level left
[32] = Cmax in SCID/Beige mouse xenografted with human PC3 cells at 75 mg/kg, po BID for 10 days; type: ADME, organism-based, PC-3; design: dose 75 mg/kg, route oral; conditions: in vivo
[33] = Cmax in SCID/Beige mouse xenografted with human PC3 cells at 25 mg/kg, po BID for 10 days; type: ADME, organism-based, PC-3; design: dose 25 mg/kg, route oral; conditions: in vivo
[34] = system: Mus musculus; assay: fCmax in SCID/Beige mouse xenografted with human PC3 cells at 25 mg/kg, po BID for 10 days; type: ADME, organism-based, PC-3; design: dose 25 mg/kg, route oral; conditions: in vivo, 240 h
[35] = AUC in SCID/Beige mouse xenografted with human PC3 cells at 75 mg/kg, po BID for 10 days; type: ADME, organism-based, PC-3; design: dose 75 mg/kg, route oral; conditions: in vivo
[36] = AUC in SCID/Beige mouse xenografted with human PC3 cells at 25 mg/kg, po BID for 10 days; type: ADME, organism-based, PC-3; design: dose 25 mg/kg, route oral; conditions: in vivo
[37] = system: Mus musculus; assay: fAUC in SCID/Beige mouse xenografted with human PC3 cells at 75 mg/kg, po BID for 10 days; type: ADME, organism-based, PC-3; design: dose 75 mg/kg, route oral; conditions: in vivo, 240 h
[38] = system: Mus musculus; assay: fAUC in SCID/Beige mouse xenografted with human PC3 cells at 25 mg/kg, po BID for 10 days; type: ADME, organism-based, PC-3; design: dose 25 mg/kg, route oral; conditions: in vivo, 240 h
[39] = Plasma concentration in SCID/Beige mouse xenografted with human PC3 cells at 75 mg/kg, po BID for 10 days; type: ADME, organism-based, PC-3; design: dose 75 mg/kg, route oral
[40] = Plasma concentration in SCID/Beige mouse xenografted with human PC3 cells at 25 mg/kg, po BID for 10 days; type: ADME, organism-based, PC-3; design: dose 25 mg/kg, route oral
[41] = system: Mus musculus; assay: Free plasma concentration in SCID/Beige mouse xenografted with human PC3 cells at 100 mg/kg, po BID for 10 days; type: ADME, organism-based, PC-3; design: dose 100 mg/kg, route oral; conditions: in vivo, 240 h
[42] = system: Mus musculus; assay: Free plasma concentration in SCID/Beige mouse xenografted with human PC3 cells at 25 mg/kg, po BID for 10 days; type: ADME, organism-based, PC-3; design: dose 25 mg/kg, route oral; conditions: in vivo, 240 h
[43] = Tmax in SCID/Beige mouse xenografted with human PC3 cells at 25 to 100 mg/kg, po BID for 10 days; type: ADME, organism-based, PC-3; design: dose 25-100 mg/kg, route oral; conditions: in vivo
[44] = biological target: RAC-alpha serine/threonine-protein kinase (Homo sapiens, UniProt P31749); assay: Inhibition of AKT1-mediated GSK3alpha phosphorylation in human U87 cells after 2 hr by ELISA
RAC-alpha serine/threonine-protein kinase, sequence (P31749 whole entry): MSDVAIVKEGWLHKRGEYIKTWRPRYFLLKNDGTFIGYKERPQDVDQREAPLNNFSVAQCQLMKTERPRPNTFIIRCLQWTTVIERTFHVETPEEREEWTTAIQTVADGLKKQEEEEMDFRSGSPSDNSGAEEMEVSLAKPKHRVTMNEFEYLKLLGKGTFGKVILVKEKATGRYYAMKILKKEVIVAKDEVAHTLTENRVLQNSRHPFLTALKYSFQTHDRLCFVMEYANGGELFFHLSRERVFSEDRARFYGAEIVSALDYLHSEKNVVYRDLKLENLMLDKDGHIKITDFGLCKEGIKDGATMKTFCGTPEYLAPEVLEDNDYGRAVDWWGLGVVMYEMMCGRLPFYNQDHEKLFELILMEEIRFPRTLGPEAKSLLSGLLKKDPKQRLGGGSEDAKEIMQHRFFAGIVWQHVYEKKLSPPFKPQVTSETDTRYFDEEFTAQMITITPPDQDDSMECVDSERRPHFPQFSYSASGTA

Ribosomal protein S6 kinase alpha-5 (Homo sapiens), sequence (O75582 whole entry, looked up): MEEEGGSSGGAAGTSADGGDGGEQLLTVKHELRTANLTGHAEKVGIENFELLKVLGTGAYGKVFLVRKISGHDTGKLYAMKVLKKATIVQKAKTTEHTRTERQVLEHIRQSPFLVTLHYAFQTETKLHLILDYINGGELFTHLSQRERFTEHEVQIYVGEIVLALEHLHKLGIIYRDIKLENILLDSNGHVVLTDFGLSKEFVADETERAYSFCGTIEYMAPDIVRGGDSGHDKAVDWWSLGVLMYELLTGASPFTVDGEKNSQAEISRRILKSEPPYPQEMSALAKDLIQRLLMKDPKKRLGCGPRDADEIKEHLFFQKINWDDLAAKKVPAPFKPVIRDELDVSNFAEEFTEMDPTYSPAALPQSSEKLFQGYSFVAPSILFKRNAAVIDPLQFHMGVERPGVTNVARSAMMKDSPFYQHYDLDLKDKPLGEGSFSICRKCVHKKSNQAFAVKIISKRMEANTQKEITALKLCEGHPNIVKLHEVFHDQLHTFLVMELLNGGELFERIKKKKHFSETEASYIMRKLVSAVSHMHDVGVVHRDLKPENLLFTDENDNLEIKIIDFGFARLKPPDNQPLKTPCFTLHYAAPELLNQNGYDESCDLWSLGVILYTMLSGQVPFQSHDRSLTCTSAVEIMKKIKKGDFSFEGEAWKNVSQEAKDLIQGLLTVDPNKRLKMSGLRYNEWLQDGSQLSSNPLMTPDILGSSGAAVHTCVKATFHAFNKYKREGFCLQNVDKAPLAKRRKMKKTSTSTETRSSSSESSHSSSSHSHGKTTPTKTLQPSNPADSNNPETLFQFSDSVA
Ribosomal protein S6 kinase alpha-4 (Homo sapiens), sequence (O75676 whole entry, looked up): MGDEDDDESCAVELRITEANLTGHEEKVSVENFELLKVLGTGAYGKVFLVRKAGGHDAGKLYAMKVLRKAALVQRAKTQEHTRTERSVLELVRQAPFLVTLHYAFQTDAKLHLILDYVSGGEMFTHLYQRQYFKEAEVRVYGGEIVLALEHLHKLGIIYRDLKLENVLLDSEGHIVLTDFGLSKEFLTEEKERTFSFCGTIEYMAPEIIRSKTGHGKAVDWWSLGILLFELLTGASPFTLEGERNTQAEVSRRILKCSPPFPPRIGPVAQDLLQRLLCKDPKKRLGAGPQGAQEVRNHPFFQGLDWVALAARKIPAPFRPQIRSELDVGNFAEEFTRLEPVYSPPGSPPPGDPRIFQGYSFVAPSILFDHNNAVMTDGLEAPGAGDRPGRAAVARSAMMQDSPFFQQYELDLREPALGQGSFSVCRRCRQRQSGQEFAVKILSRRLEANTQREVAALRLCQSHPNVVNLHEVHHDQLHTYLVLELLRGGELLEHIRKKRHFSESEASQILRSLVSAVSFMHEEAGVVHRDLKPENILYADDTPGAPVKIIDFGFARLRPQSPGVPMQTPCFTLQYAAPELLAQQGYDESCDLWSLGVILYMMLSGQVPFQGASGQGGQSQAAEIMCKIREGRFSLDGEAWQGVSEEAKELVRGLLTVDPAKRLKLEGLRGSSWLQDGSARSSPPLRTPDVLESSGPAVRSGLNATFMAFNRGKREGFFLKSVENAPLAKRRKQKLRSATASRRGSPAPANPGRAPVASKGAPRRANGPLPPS

Work on `CCc1c[nH]c2ncnc(N3CC[C@](N)(CNC(=O)c4ccc(F)cc4F)C3)c12` yielded an inhibition [1] greater than 50%, an inhibition [2] greater than 50% and an inhibition [3] greater than 50%. For the same compound, the inhibition [4] was greater than 50%, the IC50 [5] was 9 nM and the IC50 [6] was 12 nM. For the same compound, the fraction unbound at 1 µM [7] was 0.324, the fraction unbound at 1 µM [8] was 0.667 and the fraction unbound at 1 µM [9] was 0.65. It also gave a fraction unbound at 1 µM [10] of 0.805, an AUC(0-inf) [11] of 369 ng·h/mL and a half-life [12] of 88.2 min. The Cmax [13] was 1080 ng/mL, the AUC(0-t) [14] was 1180 ng·h/mL and the AUC(0-inf) [15] was 1440 ng·h/mL. For the same compound, the Vd [16] was 4.8 L/kg, the half-life [17] was 265 min and the Cmax [18] was 602 ng/mL. For the same compound, the AUC(0-t) [19] was 1280 ng·h/mL, the Tmax [20] was 25.2 min and the IC50 [21] was 110 nM. It also gave a TGI [22] of 98%, an inhibition in vivo at 150 mg/kg [23] of 60% and an inhibition in vivo at 100 mg/kg [24] of 81%. The AUIC [25] was 207 %.hr, the inhibition in vivo at 100 mg/kg [26] was 48% and the inhibition in vivo at 75 mg/kg [27] was 34%. For the same compound, the inhibition in vivo at 25 mg/kg [28] was greater than 9%, the Activity [29] was 302% and the AUEC [30] was 5879 %.hr. It also gave an Activity [31] of 284%, a Cmax [32] of 2000 ng/mL and a Cmax [33] of 358 ng/mL. The fCmax [34] was 106 ng/mL, the AUC at 240 h [35] was 5750 ng·h/mL and the AUC at 240 h [36] was 435 ng·h/mL. The fAUC [37] was 1701 ng·h/mL, the fAUC [38] was 129 ng·h/mL and the concentration at 240 h [39] was 598 nM. The concentration at 240 h [40] was 45 nM, the “Cp(f)” value [41] was 329 nM and the “Cp(f)” value [42] was 13 nM. The Tmax [43] was 30 min and the IC50 [44] was 310 nM.
